{
  "source": "patent US10327463B2",
  "about": "(priority 2015, dated 2019)",
  "origin": "cited, not measured here",
  "key": {"Listeria monocytogenes [1]": {"system": "Listeria monocytogenes", "conditions": "alone or with additional antimicrobials; turkey slurries with and without sodium nitrite"}, "Listeria monocytogenes [2]": {"system": "Listeria monocytogenes", "conditions": "maximum allowed level of 156 ppm, without adjunct antimicrobials"}, "Clostridium species": {"system": "Clostridium species", "conditions": "cured products, processed meat formulations"}},
  "note": "Counter-ions that a name gives are not always drawn.",
  "data": [
    {"smiles": "CC(=O)O", "note": "[acetic acid or its salt, acetic acid]", "values": [
      {"measurement": "inhibition of C. perfringens", "setting": "C. perfringens", "result": "failed to inhibit C. perfringens"}
    ]},
    {"smiles": "CC(=O)O.CC(=O)[O-].[Na+]", "note": "[sodium diacetate]", "values": [
      {"measurement": "level effective in controlling Listeria monocytogenes", "setting": "Listeria monocytogenes [1]", "result": "0.3-0.5%"}
    ]},
    {"smiles": "O=NO", "note": "[sodium nitrite]", "values": [
      {"measurement": "inhibition of Listeria monocytogenes", "setting": "Listeria monocytogenes [2]", "result": "insufficient for the inhibition of Listeria monocytogenes"},
      {"measurement": "level sufficient for the inhibition of Clostridium species", "setting": "Clostridium species", "result": "approx. 50 ppm"}
    ]}
  ]
}
